Converted amounts (≈) assume the structure as drawn. Where two headings read alike, the source gives them in different places.
How the values were obtained:
[1] = test system: HepG2, HB-8065; test: Cytotoxicity colorimetric (tetrazolium) assay; format: cell-based, human
Procedure, shortened: (§1)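 HepG2 (MEM, 10% FBS) and NIH/3T3 (DMEM, 10% BCS) monolayers seeded at 2×10^4 cells/well 24 h before use, then exposed to compounds for one hour in serum-free medium. After return to serum-containing medium, viable cells read by tetrazolium bioreduction to formazan. EC50 in μg/mL from four-parameter logistic fit.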

[2] = Cytotoxicity colorimetric (tetrazolium) assay; format: cell-based, human; conditions: human, HepG2 cells (HB-8065), HepG2 cells; one hour with compound in serum-free media
Procedure, shortened: as §1

[3] = test system: NIH/3T3 cells, CRL-1658; test: Cytotoxicity colorimetric (tetrazolium) assay; format: cell-based, mouse
Procedure, shortened: as §1

[4] = Cytotoxicity colorimetric (tetrazolium) assay; format: cell-based, mouse; conditions: mouse, NIH/3T3 cells (CRL-1658), NIH/3T3 cells; one hour with compound in serum-free media
Procedure, shortened: as §1

[5] = test system: Pseudomonas aeruginosa ATCC 10145; test: Minimum Inhibitory Concentration (MIC), modified microbroth dilution; format: cell-based; conditions: P. aeruginosa (10145), overnight incubation (18 hours)
[6] = test system: Staphylococcus aureus ATCC 27660; test: as above; format: cell-based; conditions: S. aureus (27660), overnight incubation (18 hours)
[7] = test system: Klebsiella pneumoniae ATCC 13883; test: as above; format: cell-based; conditions: K. pneumoniae (13883), overnight incubation (18 hours)
[8] = test system: Enterococcus faecalis ATCC 29212; test: as above; format: cell-based; conditions: E. faecalis (29212), overnight incubation (18 hours)
[9] = test system: E. Coli ATCC 25922; test: as above; format: cell-based; conditions: E. coli (25922), overnight incubation (18 hours)
[10] = test system: S. enteritidis ATCC 13076; test: Time-kill study; format: cell-based
Procedure: Time-kill studies of the compounds versus S. enteritidis ATCC 13076, E. coli ATCC25922, E. coli (lab strain) D31, and S. aureus ATCC27660 were determined in a standard protocol by measuring the time it takes to reduce the initial inoculums 3 log units. Three mL of cation-adjusted Mueller-Hinton medium was inoculated with 20 μL of frozen bacterial stock and incubated at 37° C. on a shaker platform (at 250 rpm) overnight. The suspension was diluted to approximately 5×10^5 cfu/mL and treated with 2×, 5×, 10×, and 20×MIC (MIC=1 μg/mL). The compound stock solutions were prepared at 10 mg/mL in DMSO. Time points were collected and viable bacteria were counted on MH Agar plates after an 18 hour incubation.
The time kill study was carried on Compound 200 against S. enteritidis ATCC 13076.

[11] = HepG2 cells, one hour with compound in serum-free media
[12] = NIH/3T3 cells, one hour with compound in serum-free media

MIC50 ([5]; Pseudomonas aeruginosa, ATCC10145, read-out: MIC50 P. Aeruginosa) [µg/mL] | MIC50 ([6]; Staphylococcus aureus, ATCC27660, read-out: MIC50 S. aureus) [µg/mL] | MIC50 ([7]; Klebsiella pneumoniae, ATCC13883, read-out: MIC50 K. Pnuemnoiae) [µg/mL] | MIC50 ([8]; Enterococcus faecalis, ATCC29212, read-out: MIC50 E. faecalis) [µg/mL] | MIC50 ([9]; Escherichia coli, ATCC25922, read-out: MIC50 E. coli) [µg/mL] | MIC50 P. Aeruginosa [5] [µg/mL] | MIC50 S. aureus [6] [µg/mL] | MIC50 K. Pnuemnoiae [7] [µg/mL] | MIC50 E. faecalis [8] [µg/mL] | MIC50 E. coli [9] [µg/mL] | SMILES | EC50 HepG2 (cytotoxicity) [1, 11] [µg/mL] | EC50 at 1 h [2] [µg/mL] | EC50 NIH 3T3 (cytotoxicity) [3, 12] [µg/mL] | EC50 at 1 h [4] [µg/mL] | time at which bacterial growth was reduced more than 3 log ([10]; 2×MIC) [hour] | time at which bacterial growth was reduced more than 3 log ([10]; 5×MIC) [hour] | time at which bacterial growth was reduced more than 3 log ([10]; 10×MIC) [hour] | EC50 HepG2 (cytotoxicity) [1] [µg/mL] | EC50 NIH 3T3 (cytotoxicity) [3] [µg/mL]
6.25 (≈ 9.57 µM) | 0.098 (≈ 0.15 µM) | 12.5 (≈ 19.1 µM) | 12.5 (≈ 19.1 µM) | 3.13 (≈ 4.79 µM) | – | – | – | – | – | NCCCOc1cc(OCCCN)cc(-c2ccc3c(c2)C(=O)c2cc(-c4cc(OCCCN)cc(OCCCN)c4)ccc2CC3)c1 [Compound 156] | 143.7 (≈ 220 µM) | 74.2 (≈ 114 µM) | 88.1 (≈ 135 µM) | 49.4 (≈ 75.7 µM) | – | – | – | – | –
– | – | – | – | – | 3.13 (≈ 4.98 µM) | 0.049 (≈ 0.0779 µM) | 1.56 (≈ 2.48 µM) | 0.39 (≈ 0.62 µM) | 0.78 (≈ 1.24 µM) | NCCCOc1cc(OCCCN)cc(-c2ccc3sc4ccc(-c5cc(OCCCN)cc(OCCCN)c5)cc4c3c2)c1 [Compound 200] | 126 (≈ 200 µM) | – | 155 (≈ 246 µM) | – | 3.75 | 1.55 | 1.35 | – | –
– | – | – | – | – | 6.25 (≈ 10 µM) | 0.195 (≈ 0.313 µM) | 6.25 (≈ 10 µM) | 6.25 (≈ 10 µM) | 3.13 (≈ 5.02 µM) | NCCCN(CCCN)Cc1cccc(-c2ccc3sc4ccc(-c5cccc(CN(CCCN)CCCN)c5)cc4c3c2)c1 [Compound 181] | 212 (≈ 340 µM) | – | 83.1 (≈ 133 µM) | – | – | – | – | – | –
– | – | – | – | – | 6.25 (≈ 11 µM) | 0.78 (≈ 1.38 µM) | 6.25 (≈ 11 µM) | 6.25 (≈ 11 µM) | 1.56 (≈ 2.76 µM) | NCCc1cccc(-c2ccc3c(c2)C(=O)c2cc(-c4cccc(CCN)c4)cc(-c4cccc(CCN)c4)c2CC3)c1 [Compound 154] | 85.4 (≈ 151 µM) | – | 53.4 (≈ 94.4 µM) | – | – | – | – | – | –
– | – | – | – | – | 25 (≈ 56 µM) | 1.56 (≈ 3.49 µM) | 6.25 (≈ 14 µM) | 3.13 (≈ 7.01 µM) | 6.25 (≈ 14 µM) | NCCc1cccc(-c2ccc3c(c2)C(=O)c2cc(-c4cccc(CCN)c4)ccc2CC3)c1 [Compound 153] | 80.6 (≈ 180 µM) | – | 53.3 (≈ 119 µM) | – | – | – | – | – | –
– | – | – | – | – | 6.25 (≈ 8.06 µM) | 1.56 (≈ 2.01 µM) | 12.5 (≈ 16.1 µM) | 6.25 (≈ 8.06 µM) | 6.25 (≈ 8.06 µM) | NCCCOc1cc(-c2ccc3sc4ccc(-c5cc(OCCCN)c(OCCCN)c(OCCCN)c5)cc4c3c2)cc(OCCCN)c1OCCCN [Compound 184] | 100 (≈ 129 µM) | – | 57 (≈ 73.5 µM) | – | – | – | – | – | –
– | – | – | – | – | 25 (≈ 46.9 µM) | 0.39 (≈ 0.732 µM) | 12.5 (≈ 23.5 µM) | 12.5 (≈ 23.5 µM) | 6.25 (≈ 11.7 µM) | c1cc(CN2CCNCC2)cc(-c2ccc3sc4ccc(-c5cccc(CN6CCNCC6)c5)cc4c3c2)c1 [Compound 175] | 19.4 (≈ 36.4 µM) | – | 19.9 (≈ 37.4 µM) | – | – | – | – | – | –

SMILES | MIC50 ([5]; Pseudomonas aeruginosa, ATCC10145, read-out: MIC50 P. Aeruginosa) [µg/mL] | MIC50 ([6]; Staphylococcus aureus, ATCC27660, read-out: MIC50 S. aureus) [µg/mL] | MIC50 ([7]; Klebsiella pneumoniae, ATCC13883, read-out: MIC50 K. Pnuemnoiae) [µg/mL] | MIC50 ([8]; Enterococcus faecalis, ATCC29212, read-out: MIC50 E. faecalis) [µg/mL] | MIC50 ([9]; Escherichia coli, ATCC25922, read-out: MIC50 E. coli) [µg/mL] | MIC50 P. Aeruginosa [5] [µg/mL] | MIC50 S. aureus [6] [µg/mL] | MIC50 K. Pnuemnoiae [7] [µg/mL] | MIC50 E. faecalis [8] [µg/mL] | MIC50 E. coli [9] [µg/mL] | EC50 HepG2 (cytotoxicity) [1, 11] [µg/mL] | EC50 at 1 h [2] [µg/mL] | EC50 NIH 3T3 (cytotoxicity) [3, 12] [µg/mL] | EC50 at 1 h [4] [µg/mL] | time at which bacterial growth was reduced more than 3 log ([10]; 2×MIC) [hour] | time at which bacterial growth was reduced more than 3 log ([10]; 5×MIC) [hour] | time at which bacterial growth was reduced more than 3 log ([10]; 10×MIC) [hour] | EC50 HepG2 (cytotoxicity) [1] [µg/mL] | EC50 NIH 3T3 (cytotoxicity) [3] [µg/mL]
Nc1cccc(-c2ccc3[nH]c4ccc(-c5cccc(N)c5)cc4c3c2)c1 [Compound 177] | – | – | – | – | – | 12.5 (≈ 35.8 µM) | 1.56 (≈ 4.46 µM) | >50 | >50 | 1.56 (≈ 4.46 µM) | >1000 | – | 487 (≈ 1390 µM) | – | – | – | – | – | –
NCCN(CCN)Cc1cccc(-c2ccc3[nH]c4ccc(-c5cccc(CN(CCN)CCN)c5)cc4c3c2)c1 [Compound 179] | – | – | – | – | – | 25 (≈ 45.5 µM) | 1.56 (≈ 2.84 µM) | >50 | >50 | 1.56 (≈ 2.84 µM) | 615 (≈ 1120 µM) | – | 179 (≈ 326 µM) | – | – | – | – | – | –
NCCCOc1cc(OCCCN)cc(-c2ccc3c(c2)c2ccccc2n3CCCN)c1 [Compound 161] | – | – | – | – | – | 50 (≈ 112 µM) | 25 (≈ 56 µM) | >50 | 3.13 (≈ 7.01 µM) | >50 | – | – | – | – | – | – | – | 790 (≈ 1770 µM) | >1000

Reference: patent US20140308317A1, “Polymeric Compounds And Methods Of Making And Using The Same” (CELLCEUTIX CORPORATION, priority 2012, published 2014)
